ChEMBL document CHEMBL1201862, “PubChem BioAssay data set” (2004)
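Values below derive from 48-hour exposures of cells grown in 96-well plates, with endpoints linearly interpolated between the two concentrations bracketing the appropriate inhibition level. GI50 is the concentration that inhibits growth by half.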 Activity calls are given as the source filed them. No stated cut-off is given here; in the data, active = GI50 up to about 1.1 µM and inactive = higher.

Assays:
Assay in all cases: NCI-60 cell line screen, 48 h
[1] = system: DMS-114
[2] = system: SNB-78
[3] = system: KM-20L2
[4] = system: HOP-18
[5] = system: LXFL 529
[6] = system: DLD-1
[7] = system: DMS-273
[8] = system: XF498
[9] = system: RXF 631

| SMILES | GI50 [1] | GI50 [2] | GI50 [3] | GI50 [4] | GI50 [5] | GI50 [6] | GI50 [7] | GI50 [8] | GI50 [9] |
| --- | --- | --- | --- | --- | --- | --- | --- | --- | --- |
| O=c1oc2c3ccc4ccccc4c3n(Cc3nc4ccccc4[nH]3)c2c2ccccc12 | 4.95 µM (inactive) | > 100 µM (inactive) | > 69.5 µM (inactive) | 7.57 µM (inactive) | 9.66 µM (inactive) | 5.73 µM (inactive) | – | – | – |
| CN(C)CCNc1ccc2ncn3c4ccc(O)cc4c(=O)c1c23 | 0.526 µM (active) | 3.03 µM (inactive) | 2.38 µM (inactive) | 10.6 µM (inactive) | 1.41 µM (inactive) | 1.08 µM (active) | 0.317 µM (active) | 4.13 µM (inactive) | – |
| O/N=C/c1ccc(O)c(O)c1 | 14.7 µM (inactive) | > 100 µM (inactive) | > 100 µM (inactive) | – | 84.9 µM (inactive) | > 100 µM (inactive) | 62.5 µM (inactive) | > 100 µM (inactive) | – |
| COc1cc(-c2cc(-c3cc([N+](=O)[O-])c(/C=N/NC(=O)c4ccncc4)o3)ccc2OC)ccc1C | – | – | > 100 µM (inactive) | – | > 100 µM (inactive) | > 100 µM (inactive) | – | > 100 µM (inactive) | > 100 µM (inactive) |
| CCc1cc(C)cc2[n+]1CC=C2.[O-][Cl+3]([O-])([O-])[O-] | 10 µM (inactive) | 33.9 µM (inactive) | 21.5 µM (inactive) | 0.0676 µM (active) | 4.17 µM (inactive) | – | 0.593 µM (active) | 2.56 µM (inactive) | – |
| N#CC1C(=O)NC(=O)C1=O (stereo not given) | > 100 µM (inactive) | > 100 µM (inactive) | > 100 µM (inactive) | > 100 µM (inactive) | > 100 µM (inactive) | – | > 100 µM (inactive) | > 100 µM (inactive) | > 100 µM (inactive) |
| CC12CC(=O)OC(Cc3ccccc31)O2 (stereo not given) | > 100 µM (inactive) | > 100 µM (inactive) | > 100 µM (inactive) | > 100 µM (inactive) | > 100 µM (inactive) | > 100 µM (inactive) | > 100 µM (inactive) | > 100 µM (inactive) | – |
| Cc1cc(NS(=O)(=O)c2ccc(NC(=O)c3cccc4c(=O)c5ccccc5[nH]c34)cc2)no1 | 46 µM (inactive) | 38.7 µM (inactive) | > 100 µM (inactive) | 10.2 µM (inactive) | 15.7 µM (inactive) | 61.4 µM (inactive) | – | 13.6 µM (inactive) | – |
| CCOc1ccc(/C=N\N2C(=O)c3ccccc3C2=O)cc1 | > 100 µM (inactive) | > 100 µM (inactive) | > 100 µM (inactive) | > 100 µM (inactive) | > 100 µM (inactive) | > 100 µM (inactive) | > 100 µM (inactive) | > 100 µM (inactive) | > 100 µM (inactive) |
| CCN1/C(=C/C(C)=C/c2sc3ccccc3[n+]2CC)Sc2ccccc21 | 0.082 µM (active) | 0.34 µM (active) | 0.191 µM (active) | – | 0.0331 µM (active) | 0.207 µM (active) | 0.064 µM (active) | 0.0762 µM (active) | – |
| O=c1cc(-c2ccc(O)cc2)oc2cc(O)cc(O)c12 [APIGENIN] | 32.3 µM (inactive) | 17.5 µM (inactive) | 28.8 µM (inactive) | – | 18.2 µM (inactive) | – | 18.6 µM (inactive) | 24.2 µM (inactive) | – |
| O=C(O)CC1CC=C[C@H]2c3cc4c(cc3C(=O)NC12)OCO4 (stereo not given in full) | > 75 µM (inactive) | > 75 µM (inactive) | > 75 µM (inactive) | – | > 75 µM (inactive) | > 75 µM (inactive) | > 75 µM (inactive) | – | – |
| COC(=O)[C@@]12OC[C@]34C([C@@H](O)C1O)[C@@]1(C)CC(=O)C(O)=C(C)C1C[C@H]3OC(=O)[C@H](OC(=O)CC(C)C(F)(F)F)[C@H]42 (stereo not given in full) | 0.00948 µM (active) | 0.206 µM (active) | 0.0195 µM (active) | 0.308 µM (active) | 0.00731 µM (active) | 0.0877 µM (active) | 0.00693 µM (active) | 0.00522 µM (active) | – |
| Cn1cc2ccccc2c1-c1nc(F)nc(Oc2ccc3c(c2)CC[C@@H]2C3CC[C@@]3(C)C2CC[C@@H]3O)n1 (stereo not given in full) | 3.66 µM (inactive) | 22.3 µM (inactive) | 19.1 µM (inactive) | 18.2 µM (inactive) | 3.71 µM (inactive) | 7.16 µM (inactive) | 11.6 µM (inactive) | – | – |
| COc1cc(O)c(C(=O)/C=C/c2ccc(OC)c(OCc3ccccc3)c2)c(OC)c1 | – | 2.57 µM (inactive) | > 100 µM (inactive) | > 100 µM (inactive) | 5.45 µM (inactive) | > 100 µM (inactive) | 0.175 µM (active) | > 100 µM (inactive) | – |
| O=CN/C=C/c1ccc(O)c(O)c1 | > 100 µM (inactive) | > 100 µM (inactive) | > 100 µM (inactive) | – | > 100 µM (inactive) | > 100 µM (inactive) | > 100 µM (inactive) | > 100 µM (inactive) | > 100 µM (inactive) |
| CCOC(=O)C(=O)Nc1nc2c(s1)C(=O)c1ccccc1C2=O | 3.6 µM (inactive) | 11.6 µM (inactive) | 21.2 µM (inactive) | – | 13.4 µM (inactive) | 15.3 µM (inactive) | 19.6 µM (inactive) | 13.9 µM (inactive) | 12.3 µM (inactive) |
| Cc1ccc(/N=C/c2ccc3c(c2)OCO3)cc1C | – | > 100 µM (inactive) | > 100 µM (inactive) | > 100 µM (inactive) | > 100 µM (inactive) | > 100 µM (inactive) | > 100 µM (inactive) | > 100 µM (inactive) | > 100 µM (inactive) |
| O=C1CCC2CCOc3ccc(O)c1c32 (stereo not given) | > 100 µM (inactive) | > 100 µM (inactive) | > 100 µM (inactive) | – | – | > 100 µM (inactive) | > 100 µM (inactive) | – | > 100 µM (inactive) |
| O=C1NN=CN2C(=O)CCC12 (stereo not given) | > 100 µM (inactive) | > 100 µM (inactive) | > 100 µM (inactive) | – | > 100 µM (inactive) | > 100 µM (inactive) | > 100 µM (inactive) | > 100 µM (inactive) | > 100 µM (inactive) |
| CC(=O)Nc1ccc(S(=O)(=O)N/N=C/c2cc(I)cc([N+](=O)[O-])c2O)cc1 | 50.8 µM (inactive) | 37 µM (inactive) | > 100 µM (inactive) | 27.7 µM (inactive) | – | > 100 µM (inactive) | 62.4 µM (inactive) | 24.1 µM (inactive) | > 100 µM (inactive) |
| CCOC(=O)c1sc2c(C(=O)OCC)n3ccccc3c2c1N | 40.6 µM (inactive) | 50.9 µM (inactive) | > 100 µM (inactive) | > 100 µM (inactive) | – | 82.2 µM (inactive) | 53.6 µM (inactive) | 25.3 µM (inactive) | – |
| C(/COc1cccnc1)=N\NC1=NCCN1 | > 100 µM (inactive) | > 100 µM (inactive) | > 100 µM (inactive) | > 100 µM (inactive) | > 100 µM (inactive) | > 100 µM (inactive) | > 100 µM (inactive) | > 100 µM (inactive) | – |
| CCN(CC)CCCNc1ccc2nc(C)n3c4ccc(O)cc4c(=O)c1c23 | 5.41 µM (inactive) | 5.35 µM (inactive) | 1.65 µM (inactive) | 12.4 µM (inactive) | 3.22 µM (inactive) | 1.2 µM (inactive) | 0.619 µM (active) | 6.81 µM (inactive) | 3.79 µM (inactive) |
| CS(=O)(=O)OCCN1CCN(C(=O)c2cccc3c(Nc4ccc(S(N)(=O)=O)cc4)c4ccccc4nc23)CC1 | > 42.2 µM (inactive) | > 100 µM (inactive) | > 100 µM (inactive) | > 100 µM (inactive) | > 100 µM (inactive) | > 46.8 µM (inactive) | > 100 µM (inactive) | > 100 µM (inactive) | > 100 µM (inactive) |
